The test system of assay [1] is phosphorylation of Serine 473 in Akt. Nature of the assay: In vitro phospho-Ser473 Akt assay in MDA-MB-468 cells, Test (c). The note with it: Homo sapiens, read-out: IC50, inhibition of phosphorylation of Serine 473 in Akt. The assay is classed as cell-based. The procedure:
This assay determines the ability of test compounds to inhibit phosphorylation of Serine 473 in Akt as assessed using Acumen Explorer technology (TTP LabTech Limited, Royston, Herts, SG8 6EE, UK), a plate reader that can be used to rapidly quantitate features of images generated by laser-scanning.
A MDA-MB-468 human breast adenocarcinoma cell line (LGC Promochem, Teddington, Middlesex, UK, Catalogue No. HTB-132) was routinely maintained at 37° C. with 5% CO2 up to a confluency of 70-90% in DMEM containing 10% FCS and 1% L-glutamine.
For the assay, the cells were detached from the culture flask using ‘Accutase’ (Innovative Cell Technologies Inc., San Diego, Calif., USA; Catalogue No. AT104) using standard tissue culture methods and resuspended in media to give 5.5×10^4 cells per ml. Aliquots (90 μl) were seeded into each of the inner 60 wells of a black ‘Costar’ 96-well plate (Corning Inc., NY, USA; Catalogue No. 3904) to give a density of ˜5000 cells per well. Aliquots (90 μl) of culture media were placed in the outer wells to prevent edge effects. [An alternative cell handling procedure involved the maintenance of the cells in a ‘SelecT’ robotic device (The Automation Partnership, Royston, Herts SG8 5WY, UK). Cells were resuspended in media to give 5×10^4 cells per ml. Aliquots (100 μl) were seeded into the wells of a black ‘Costar’ 96-well plate.] […]

Another assay concerns the target T1, p110α Type Ia human PI3K (Homo sapiens, UniProt P42336).
T1 construct: full length DNA of each of the p110α, p110β and p110δ Type Ia human PI3K p110 isoforms; 6-His; made in house; Grp1 PH domain in E. coli
Nature of the assay: In vitro PI3K enzyme assay (AlphaScreen), Test (a). Format: biochemical. The note with it: read-out: IC50 versus p110α Type Ia human PI3K. The source says: The assay used AlphaScreen technology (Gray et al., Analytical Biochemistry, 2003, 313: 234-245) to determine the ability of test compounds to inhibit phosphorylation by recombinant Type I PI3K enzymes of the lipid PI(4,5)P2.
DNA fragments encoding human PI3K catalytic and regulatory subunits were isolated from cDNA libraries using standard molecular biology and PCR cloning techniques. The selected DNA fragments were used to generate baculovirus expression vectors. In particular, full length DNA of each of the p110α, p110β and p110δ Type Ia human PI3K p110 isoforms (EMBL Accession Nos. HSU79143, S67334, Y10055 for p110α, p110β and p110δ respectively) were sub-cloned into a pDEST10 vector (Invitrogen Limited, Fountain Drive, Paisley, UK). The vector is a Gateway-adapted version of Fastbac 1 containing a 6-His epitope tag. […]
Biotinylated-DiC8-PI(3,4,5)P3 (50 nM; Cell Signals Inc., Catalogue No. 107), recombinant purified GST-Grp1 PH protein (2.5 nM) and AlphaScreen Anti-GST donor and acceptor beads (100 ng; Packard Bioscience Limited, Station Road, Pangbourne, Berkshire, UK, Catalogue No. 6760603M) were added and the assay plates were left for about 5 to 20 hours at room temperature in the dark. The resultant signals arising from laser light excitation at 680 nm were read using a Packard AlphaQuest instrument. […]
(In general: Alpha assays give light when donor and acceptor beads are brought close together.)

Structures are written as SMILES.

What is called IC50 is the concentration at which inhibition is half-maximal.

T1 sequence (P42336 whole entry, the tested form may be a part, canonical isoform): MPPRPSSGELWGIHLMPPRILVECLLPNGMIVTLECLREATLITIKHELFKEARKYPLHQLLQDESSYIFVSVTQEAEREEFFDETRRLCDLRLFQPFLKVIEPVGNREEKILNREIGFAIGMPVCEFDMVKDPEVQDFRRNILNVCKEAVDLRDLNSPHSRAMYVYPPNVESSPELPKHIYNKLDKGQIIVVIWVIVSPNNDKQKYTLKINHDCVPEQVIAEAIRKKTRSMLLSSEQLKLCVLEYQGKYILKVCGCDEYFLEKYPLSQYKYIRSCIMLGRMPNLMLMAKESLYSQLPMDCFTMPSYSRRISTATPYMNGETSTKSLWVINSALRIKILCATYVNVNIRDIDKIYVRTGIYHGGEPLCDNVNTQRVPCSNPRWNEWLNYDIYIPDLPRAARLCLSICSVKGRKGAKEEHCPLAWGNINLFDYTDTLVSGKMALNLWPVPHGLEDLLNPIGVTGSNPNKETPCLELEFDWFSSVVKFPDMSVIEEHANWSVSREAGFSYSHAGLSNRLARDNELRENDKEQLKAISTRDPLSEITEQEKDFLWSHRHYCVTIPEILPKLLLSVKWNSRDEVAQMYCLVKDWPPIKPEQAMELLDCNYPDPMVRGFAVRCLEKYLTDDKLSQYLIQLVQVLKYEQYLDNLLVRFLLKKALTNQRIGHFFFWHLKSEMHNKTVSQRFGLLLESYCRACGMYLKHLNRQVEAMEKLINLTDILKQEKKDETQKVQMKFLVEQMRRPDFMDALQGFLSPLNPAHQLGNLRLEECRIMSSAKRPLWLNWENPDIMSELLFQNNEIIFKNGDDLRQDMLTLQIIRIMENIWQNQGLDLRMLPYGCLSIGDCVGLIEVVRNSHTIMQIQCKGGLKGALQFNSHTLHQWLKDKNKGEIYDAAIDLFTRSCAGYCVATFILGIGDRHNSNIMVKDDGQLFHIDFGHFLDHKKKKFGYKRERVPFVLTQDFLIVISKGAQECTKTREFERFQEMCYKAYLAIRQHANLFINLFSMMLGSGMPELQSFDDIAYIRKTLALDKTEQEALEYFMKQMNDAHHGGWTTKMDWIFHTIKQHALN
T1 sequence (P27986 whole entry partner, the tested form may be a part, canonical isoform): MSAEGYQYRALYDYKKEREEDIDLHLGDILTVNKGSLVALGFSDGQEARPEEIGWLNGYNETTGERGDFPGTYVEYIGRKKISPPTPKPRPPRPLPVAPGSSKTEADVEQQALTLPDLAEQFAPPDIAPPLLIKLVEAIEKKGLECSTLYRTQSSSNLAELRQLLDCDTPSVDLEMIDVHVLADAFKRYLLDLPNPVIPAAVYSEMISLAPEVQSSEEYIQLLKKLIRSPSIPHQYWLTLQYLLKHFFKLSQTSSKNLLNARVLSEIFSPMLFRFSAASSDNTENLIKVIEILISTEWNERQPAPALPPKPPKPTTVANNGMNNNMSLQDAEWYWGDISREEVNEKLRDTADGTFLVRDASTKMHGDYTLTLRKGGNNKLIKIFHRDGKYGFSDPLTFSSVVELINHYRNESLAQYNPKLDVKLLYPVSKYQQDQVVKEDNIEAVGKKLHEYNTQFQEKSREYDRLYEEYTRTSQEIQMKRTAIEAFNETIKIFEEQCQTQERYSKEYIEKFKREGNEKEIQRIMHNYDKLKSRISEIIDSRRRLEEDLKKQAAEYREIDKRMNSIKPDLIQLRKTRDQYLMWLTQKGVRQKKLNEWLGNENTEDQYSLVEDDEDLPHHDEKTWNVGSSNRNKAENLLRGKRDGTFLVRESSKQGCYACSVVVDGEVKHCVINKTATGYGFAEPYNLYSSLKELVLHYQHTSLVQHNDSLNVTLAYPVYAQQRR

On to `NCC(=O)N1CC=C(c2cc(N3CCOCC3)nc(-n3c(C(F)F)nc4ccccc43)n2)CC1` [Example 1, 2-(2-difluoromethylbenzimidazol-1-yl)-4-(N-glycyl-1,2,3,6-tetrahydropyridin-4-yl)-6-morpholinopyrimidine], for which the IC50 (in assay [1]; at p110α Type Ia human PI3K) was about 100 nM each time.

On to `NCC(=O)N1CCC(c2cc(N3CCOCC3)nc(-n3c(C(F)F)nc4ccccc43)n2)CC1` [Example 2, 2-(2-difluoromethylbenzimidazol-1-yl)-4-(N-glycylpiperidin-4-yl)-6-morpholinopyrimidine], for which the IC50 in assay [1] is about 100 nM; on p110α Type Ia human PI3K, about 300 nM.

The values above are taken from patent publication US20090233926A1, “2-BENZIMIDAZOLYL-6-MORPHOLINO-4-PIPERIDIN-4-YLPYRIMIDINE DERIVATIVES AS PI3K AND MTOR INHIBITORS FOR THE TREATMENT OF PROLIFERATIVE DISORDERS” (AstraZeneca, priority 2006, published 2009).
